Entries after “also recorded” stand apart in the source; their conditions may differ.
How the values were obtained:
[1] = system: C. elegans strain AM141 (Q40::YFP aggregates); assay: Q40::YFP aggregate foci in C. elegans strain AM141 (Huntington-like polyglutamine aggregation model); format: in vivo; conditions: for reduction of aggregate count (aggregate foci): strain AM141, Q40::YFP in muscle, FIG. 3
From the text: C. elegans (AM141) adults were imaged at 7 days of adult age and quantified for intensity (FIG. 2A) and number (FIG. 2B) of Q40::YFP aggregates after 0, 1, 3, or 6 d of exposure to 50-nM PNR-5-02. Treated worms differ from untreated worms (“Days Tx”=0) by 2-tailed t test: *P<0.01; **P<1E-4.
FIG. 3 depicts a graph showing reduction of protein aggregation in a C. elegans model of Huntington's disease or other neurodegenerative diseases featuring aggregates that contain polyglutamine tracts. Strain AM141, which expresses Q40::YFP in muscle, undergoes age-progressive accumulation of aggregate foci. PNR-5-02 analogues confer at least 30% reduction in formation of aggregate foci (****=P<0.00005 and *=P<0.01). PNR-5-18, PNR-4-44, PNR-5-58, and PNR-4-76 reduced aggregate count by ˜20%. PNR-5-02, PNR-4-87, PNR-5-56, and PNR-5-57 reduced aggregates ≥30%.
(§1) Several panels of drugs were tested for their ability to protect against formation of protein aggregates in the following model systems: (i) a cell-culture model of Alzheimer-like protein aggregation (SH-SY5Y-APPSw, a human neuroblastoma cell line expressing the Swedish mutation of Amyloid Precursor Protein (APP), and thus predisposed to form β-amyloid aggregates; (ii) C. elegans strain CL4176, a model of Alzheimer-like amyloidopathy that can be induced to express human Aβ1-42 in muscle, and declines sharply in motility 24-42 hours after induction unless protected by effective drugs; (iii) C. elegans strain CL2355, a model of Alzheimer-like amyloidopathy that expresses human Aβ1-42 in all neurons after upshift induction (as in ii, above), and consequently loses its normal chemotactic responses; (iv) C. elegans strain NL5901, a model of Parkinson's disease that expresses α-synuclein::GFP in neurons, forming fluorescent aggregates with age; aggregates are scored by number and intensity of GFP foci, or scored for neuron loss with age by dye-filling; and (v) C. elegans strain AM141, a model of Huntington-like polyglutamine aggregation, which expresses Q40::YFP (a 40-glutamine tract fused in-frame to yellow fluorescent protein) in muscle cells and accumulates aggregates during aging.

SH-SY5Y-APPSw cells = assay: Thioflavin-T amyloid staining in SH-SY5Y-APPSw neuroblastoma cells; format: cell-based, human; conditions: for reduction of Thioflavin-fluorescence intensity: 48 hours drug treatment, amyloid fluorescence per nucleus, P<0.0001
Description: FIG. 7 depicts a graph showing PNR-5-02 analogues reduce amyloid accumulation in human neuroblastoma cells overexpressing amyloid precursor protein (APPSw). SH-SY5Y-APPSw, human neuroblastoma cells overexpressing a mutant amyloid precursor protein (APPsw) associated with familial AD. Elevated APPSw leads to substantial formation of amyloid plaque, visualized by fluorescence microscopy after Thioflavin-T staining on day 3 of culture.
as §1
Human neuroblastoma cells (SH-SY5Y-APPsw), express the Swedish mutant of Amyloid Precursor Protein (APPsw) and therefore are predisposed to form amyloid aggregate. […] Amyloid fluorescence is then divided by the number of nuclei, to obtain relative amyloid content per cell.

BRI-Aβ42 mice = assay: Sarcosyl-insoluble protein aggregates in cerebral cortex of BRI-Aβ42 mice; format: in vivo
Description: Total protein and sarcosyl-insoluble protein aggregates were prepared from cerebral cortex of […] mice, treated as in FIG. 4. Aliquots were separated on SDS-acrylamide gels and stained with Sypro Ruby (Molecular Probes). Gel lanes were scanned, and for each aggregate-protein lane the integral of intensity was normalized to the integral for total protein. *P<0.03 by 1-tailed heteroscedastic t test.
Total protein and total sarcosyl-insoluble aggregates were isolated from cerebral cortex of BRI-Aβ42 mice, sacrificed after 10 daily IP injections with PNR-5-02 (as above) or vehicle. Protein aliquots were suspended in Laemmli buffer and resolved by SDS-acrylamide gel electrophoresis, and quantitated by protein-specific fluorescent staining. Results, presented in FIG. 5 as the percent of aggregate protein after normalization to total protein from the same sample, indicate an 18% reduction in aggregates for PNR-5-02-treated mice. Larger aggregates (at the top of each gel lane) were reduced >40%.

C. elegans = C. elegans life span; format: in vivo
Description: FIG. 8 depicts a graph showing that PNR-5-02 increase C. elegans life span. The effect of PNR-5-02 on C. elegans life span, at different concentrations both mean and maximum life span of the nematode life span is extended by 15%.
Synchronized eggs (expected to hatch at approximately the same time) were placed on 60-mm nutrient-agar plates to which either vehicle (0.013% DMSO, v/v) for controls or PNR-5-02 (10 μM in 0.013% DMSO) was added. Worms were transferred to fresh plates daily for 7 days, and on alternate days thereafter, scoring worms as alive if they moved spontaneously or in response to gentle prodding. Worms lost for reasons other than natural death were censored (removed from mortality calculations) from that date. PNR-5-02 extended the nematode life span by 15% (FIG. 8).

C. elegans strain CL4176 = C. elegans strain CL4176 amyloidopathy model (human Aβ1-42 in muscle, motility); format: in vivo; conditions: CL4176, decline in motility 24-42 hours after induction
Description: as §1

C. elegans strain CL2355 = C. elegans strain CL2355 amyloidopathy model (human Aβ1-42 in all neurons, chemotaxis); format: in vivo; conditions: CL2355, loss of chemotactic responses
Description: as §1

C. elegans strain NL5901 = C. elegans strain NL5901 Parkinson's disease model (α-synuclein::GFP aggregates); format: in vivo; conditions: NL5901, α-synuclein::GFP foci or neuron loss
Description: as §1

[2] = cerebral cortex, 10 daily IP injections 5.7 μmole/kg
[3] = at different concentrations, FIG. 8

SMILES: COc1cc(/C(C#N)=C/c2coc3ccccc23)cc(OC)c1OC [PNR-5-18]
- reduction of aggregate count (aggregate foci) [1]: ~20%

SMILES: COc1cc(/C(C#N)=C\c2cc3ccccc3s2)cc(OC)c1OC [PNR-5-02]
- intensity and number of Q40::YFP aggregates ([1]; AM141 adults imaged at 7 days of adult age, 1 d exposure to 50-nM vs 6 d exposure): as effective in reducing AM141 aggregates as 6-days exposure; also recorded: reduces Q40 aggregated in just 1 day
- protection against formation of protein aggregates ([1]; C. elegans AM141, Q40::YFP aggregates): protective
- protection against formation of protein aggregates (SH-SY5Y-APPSw cells; SH-SY5Y-APPSw, β-amyloid aggregates): protective
- protein aggregates in cerebral cortex (in words) (BRI-Aβ42 mice; FIG. 5, P<0.03 by 1-tailed heteroscedastic t test): reduces protein aggregates
- reduction in sarcosyl-insoluble aggregates normalized to total protein (BRI-Aβ42 mice; [2]): 18%
- reduction of larger aggregates (top of each gel lane) (BRI-Aβ42 mice; [2]): > 40%
- life span extension (C. elegans; 10 μM in 0.013% DMSO, from eggs): 15%
- maximum life span extension (C. elegans; [3]): 15%
- mean life span extension (C. elegans; [3]): 15%
- protection against formation of protein aggregates (C. elegans strain CL4176): protective
- protection against formation of protein aggregates (C. elegans strain CL2355): protective
- protection against formation of protein aggregates (C. elegans strain NL5901): protective

SMILES: COc1ccc(/C(C#N)=C/c2c[nH]c3ccccc23)cc1OC [PNR-4-87]
- reduction of Thioflavin-fluorescence intensity (SH-SY5Y-APPSw cells): 34%

SMILES: COc1cc(/C(C#N)=C/c2cc3ccccc3[nH]2)cc(OC)c1OC [PNR-4-44]
- reduction of aggregate count (aggregate foci) [1]: ~20%

SMILES: COc1ccc(/C(C#N)=C/c2cc3ccccc3s2)cc1 [PNR-4-76]
- reduction of aggregate count (aggregate foci) [1]: ~20%

SMILES: COc1cc(OC)cc(/C(C#N)=C/c2nc3ccccc3s2)c1 [PNR-5-58]
- reduction of aggregate count (aggregate foci) [1]: ~20%
- reduction of Thioflavin-fluorescence intensity (SH-SY5Y-APPSw cells): 54%
